According to patent publication US7265260B2, “Transgenic non-human mammals expressing constitutively activated tyrosine kinase receptors” (Bristol-Myers Squibb Company, priority 2002, dated 2007):

Tested on: IGF1R Sal tumor cell line
Test: Cytotoxicity assay: inhibition of cell proliferation by [3H]-thymidine incorporation
Type: cell-based
Conditions: IGF-1R-Sal, IGF1R Sal (CD8-IGF1R) cell line from transgenic mouse xenograft tumor, 72 h exposure, read-out: Cytotoxicity Assay IC50 (nM) against IGF1R Sal tumor cell line
Procedure: The proliferative activity of two IGF1R inhibitors in cells was evaluated in vitro against a cell line derived from a xenograft tumor generated in a transgenic mouse, IGF1R Sal (CD8-IGF1R), which was engineered to overexpress the catalytic domain of the human IGF1R. The two IGF1R inhibitors evaluated were a benzimidazole compound as described in WO02/079192 and U.S. application Ser. No. 10/263,448, hereby incorporated by reference, and paclitaxel. Inhibition of cellular proliferation was also determined in a variety of human tumor xenograft cell lines including, Colo205 (colon), Geo (colon), RD1 (rhabdomyosarcoma), H3396 (breast), and MDA PCa2b (prostate). Proliferation was evaluated by incorporation of [^3H]-thymidine into DNA after a 72 hour exposure to reagents. Cells were plated at 1,500 cells/well in 96-well microtiter plates and 24 hours later cells were exposed to a range of drug concentrations. After 72 hours incubation at 37° C., cells were pulsed with 4 μCi/ml [6-^3H] thymidine (Amersham Pharmacia Biotech, UK) for 3 hours, trypsinized, harvested onto UniFilter-96, GF/B plates (PerkinElmer, Boston, Mass.), and scintillation was measured on a TopCount.NXT (Packard, Conn.). Results are expressed as an IC50, which is the drug concentration required to inhibit cell proliferation by 50% to that of untreated control cells.

## CC(=O)O[C@H]1C(=O)[C@@]2(C)[C@H]([C@H](OC(=O)c3ccccc3)[C@]3(O)C[C@H](OC(=O)[C@H](O)[C@@H](NC(=O)c4ccccc4)c4ccccc4)C(C)=C1C3(C)C)[C@]1(OC(C)=O)CO[C@@H]1C[C@@H]2O [paclitaxel]
  IC50: 2.9 nM
